{"source": "patent US20240327471A1", "about": "“IL-10 INDUCING POLYPEPTIDES AND USES THEREOF” (ENTEROME S.A., priority 2021, published 2024)", "key": {"human ileal explants": {"test_system": "human ileal explants", "experiment": "Ex vivo human ileal explants in Ussing chambers inflamed with E. coli LF82 (TER, histology, IL-8 ELISA)", "assay_type": "cell-based", "method": "Next, the role of NAT_29 was evaluated in the context of inflammatory diseases using ex vivo experiments performed on human ileal resections. To this end, explants were mounted on Ussing Chambers in order to separate the apical side from the basolateral side as naturally occurs in the gut. Tissues were pre-incubated 1 h with NAT_29 (SEQ ID NO: 1) before inflammation was triggered with live Escherichia coli LF82 during 4 hours.\nPreparation of Bacteria: The day before the assay, LB broth (Sigma Aldrich, L3522) was inoculated, using sterile loops, with bacteria from a glycerol stock (E. coli LF82-gfp) maintained at −80° C. Tubes were incubated overnight at 37° C. without shaking. The next day, optical density of the bacterial suspensions was read at 600 nm using a spectrophotometer (Amersham Ultrospec 10) allowing estimation of the bacterial cell density and bacteria were added to human explants as explained below.\nHuman tissue samples were obtained from patients undergoing surgery with the patients' agreement. Samples were taken from macroscopically unaffected area as identified by the surgeon. […]\nThree parameters were assessed to evaluate the anti-inflammatory potential of NAT_29 in the ex vivo model: • 1) Transepithelial Electrical Resistance (TER) which is a measure of integrity/tightness of the human explants; • 2) histology; • 3) IL-8 secretion (quantified by Elisa).\nTER assays are well-known methods for measuring effects on the structural and functional integrity of an epithelial cell layer, which are described, for example, in: Srinivasan et al., 2015, J Lab Autom, 20:107-126. Accordingly, the integrity/tightness of the human explants during the incubation was evaluated through Transepithelial Electrical Resistance (TER) measurement using Millicell-ERS (Electrical Resistance System) Voltohmmeter (Millipore, MERS00002). […]\nIL-8 levels were measured by ELISA (BD Biosciences, 555244). […] Absorbances were measured using a microplate reader (BioTek, Synergy MX, model SMATLD) at 490 nm. […]"}, "monocytes": {"test_system": "monocytes", "experiment": "Kinetics of IL-10, TNF-α and IL-6 secretion from monocytes co-stimulated with LPS (AlphaLISA)", "assay_type": "cell-based, human", "settings": "1 μM, LPS 10 ng/ml", "method": "To confirm the anti-inflammatory potential of NAT_29 (SEQ ID NO: 1), a kinetic study was performed to test the concomitant secretion of IL-10 and the major pro-inflammatory cytokines TNF-α and IL-6. To this end, monocytes were obtained as described in Example 3 and stimulated with 1 μM NAT_29 polypeptide (SEQ ID NO: 1), co-stimulated with 10 ng/ml of LPS from E. coli O111: B4 (InvivoGen, tlrl-eblps) and placed in humidified CO2 incubator at 5% CO2/37° C. for 72 h. IL-10, TNF-α and IL-6 secretion were measured at 5, 10, 24, 48 and 72 hours by AlphaLISA® on cell supernatants according to the supplier's protocol (Perkin, ref. AL218F, AL208F, AL223F) and read on an Envision plate reader (Perkin Elmer)."}, "[1]": {"test_system": "monocyte-derived dendritic cells (MoDCs)", "experiment": "NAT_29 dose response, IL-10 secretion from MoDCs co-stimulated with LPS (AlphaLISA)", "assay_type": "cell-based, human", "settings": "0.1 to 1000 nM; LPS 100 ng/ml; 24 hours", "method": "To investigate the IL-10 inducing/enhancing capacity of NAT_29, in vitro IL-10 secretion of human immune cells in the presence of different doses of NAT_29 was tested. Briefly, human CD14+ monocytes were isolated from peripheral blood mononuclear cells (PBMCs) from healthy human volunteers by density gradient centrifugation using SepMate™-50 IVD tubes (Stemcell, Ref. 85460). The obtained PBMCs were washed thrice with Dulbeccos's phosphate buffered saline (PBS, Sigma, D88537) and lysed 10 min at room temperature in Red blood Lysis buffer 1X (Miltenyi Biotec, 130-094-183). Cells were washed with MACS buffer (Miltenyi Biotec, 130-091-221) and counted using the trypan blue dye exclusion method. CD14+monocytes were sorted using anti-human CD14 Microbeads (Miltenyi Biotec, 130-050-201) as per manufacturer's protocol. Positive CD14+ fractions were collected and seeded at 2×10^4 cells per well in 384 well plates in IMDM medium (Gibco, 12440-046) supplemented with 10% FBS and 1X antibiotic solution.\nMonocyte-derived dendritic cells (MoDCs) were derived from the differentiation of CD14+ cells, obtained after the selective sorting. […]\n[…] IL-10 secretion were measured at 24 hours by AlphaLISA® on cell supernatants according to the supplier's protocol and read on an Envision plate reader (Perkin Elmer)."}}, "data": [{"sequence": "KKGSRSCFFIYLDRGTKKGSRSCFFYLP (NAT_29) [28-amino-acid fragment of microbiota protein ID3166]", "values": [{"measurement": "IL-8 secretion (ELISA, basolateral side)", "setting": "human ileal explants; 1000 or 10 nM, LF82 4 h (LF82 alone 4-fold increase)", "value": "completely abolished IL-8 secretion"}, {"measurement": "TER reduction", "setting": "human ileal explants; pre-incubation 1 h at 1000 nM or 10 nM, then E. coli LF82 4 hours, LF82 alone 52%, control without LF82 24%", "value": 32, "unit": "%"}, {"measurement": "histology (H&E staining) of explants", "setting": "human ileal explants; pre-incubation with 1000 nM, LF82 4 h", "value": "protective effect against LF82-induced degradation"}, {"measurement": "IL-6 secretion", "setting": "monocytes; 5, 10, 24, 48 and 72 hours", "value": "no significant secretion"}, {"measurement": "TNF-a secretion", "setting": "monocytes; 5, 10, 24, 48 and 72 hours", "value": "no significant secretion"}, {"measurement": "IL-10 secretion, fold in respect to LPS, peak", "setting": "monocytes; peak at 24 h, mean of six monocyte donors", "value": 2, "unit": "fold"}, {"measurement": "IL-10 secretion, fold in respect to LPS, after peak", "setting": "monocytes; until the end of the experiment (72 h)", "value": "1,5 Fold"}, {"measurement": "IL-10 secretion from MoDCs", "setting": "[1]", "value": "highest IL-10 levels were measured in both cell types at the highest concentration of NAT_29 tested"}]}]}
